Experiment [1] deals with anti-dihydroouabain antibody. As to the kind of experiment: Dihydroouabain EIA, cross-reactivity with anti-dihydroouabain antibody. It is filed as binding, rabbit. The note with it: dihydroouabain = 100%. The method, then: OLF was measured using ouabain EIA. This assay uses ouabain covalently bound to the microtiter plate to compete with unbound samples or standards for binding to a constant amount of anti-ouabain antibody (Harris et al., 1991). Dihydroouabain-like immunoreactivity was measured by EIA using a polyclonal dihydroouabain-specific antibody prepared according to our specifications by HTI Bio-Product Inc (Ramona, Calif.). The antibody production strategy was as follows: dihydroouabain (dho) was conjugated to keyhole limpet hemocyanin (KLH) through the rhamnose sugar ring and the resulting conjugate was injected in three rabbits. Blood samples from the rabbits were drawn three weeks after the primary injection, and every two weeks after subsequent booster injections. […]
Briefly, immunoassay plates were coated with approximately 0.5 μg dho-BSA conjugate/well for a minimum of 18 hrs. at 4° C. […] Color development was monitored at 650 nm for a maximum of 30 min. after which the reaction was stopped with TMB Stop buffer and the plate was then read at 450 nm. The readings were adjusted with a system blank and for non-specific binding.
Two specific antibodies, one against ouabain and one against dihydroouabain, were used to characterize OLF and DH-OLF. […] The concentrations were determined using molar absorptivities as described above.

The subject of a further experiment is anti-ouabain antibody. Put plainly: Ouabain EIA, cross-reactivity with anti-ouabain antibody. It is filed as binding. The settings on record: for cross-reactivity with ouabain antibody: ouabain = 100%. The method, then:
UV spectral properties, molar absorptivity, and concentrations of these endogenous factors were calculated.
OLF was measured using ouabain EIA. This assay uses ouabain covalently bound to the microtiter plate to compete with unbound samples or standards for binding to a constant amount of anti-ouabain antibody (Harris et al., 1991). Dihydroouabain-like immunoreactivity was measured by EIA using a polyclonal dihydroouabain-specific antibody prepared according to our specifications by HTI Bio-Product Inc (Ramona, Calif.). The antibody production strategy was as follows: dihydroouabain (dho) was conjugated to keyhole limpet hemocyanin (KLH) through the rhamnose sugar ring and the resulting conjugate was injected in three rabbits. Blood samples from the rabbits were drawn three weeks after the primary injection, and every two weeks after subsequent booster injections.
Two specific antibodies, one against ouabain and one against dihydroouabain, were used to characterize OLF and DH-OLF. Both of these antibodies are sensitive to structural changes at the lactone ring epitope of these molecules. […] The concentrations were determined using molar absorptivities as described above.

The target of experiment [2] is porcine cerebral cortex Na+,K+-ATPase. Put plainly: Inhibition of Na+,K+-ATPase catalytic activity (phosphate release from ATP). The experiment is classed as biochemical. As to the method: Dried frozen powder of porcine cerebral cortical tissue (PCC) was reconstituted at 1 Unit/ml in buffer containing; 50 mM Tris-HCl and 2 mM MgCl2, at a pH of 7.2. The reconstituted tissue was then washed three times and resuspended in the same buffer. The protein concentration was determined by BIO-RAD Protein Assay (Bio-Rad, Hercules, Calif.), adjusted to about 1 mg/ml and used both in the catalytic inhibition and ouabain-stimulated phosphorylation experiments (PAGE and Western analysis). The inhibition assay was performed briefly by pipetting 20 μl of sample containing the desired concentration of glycoside (Tris buffer was used for no-inhibitor control) into a well of a microtiter plate placed in a 37° C. water bath for 10 minutes. […] After the incubation period, we added 150 μl of molybdate solution (per liter, 1.0 mmol of molybdate, 11 mmol of sulfuric acid, and 142 ml of Tween 80: methanol solution (12:88 by vol). After 30 minutes of incubation, color development was allowed to proceed for a maximum of 30 min. after which the color intensity was measured by pipetting 150 μl of the reaction mixture from each well to a corresponding well on another microtiter plate. The color intensity is proportional to the release of phosphate ions which is a direct indicator of ATP breakdown and therefore NKA activity. The absorbances were measured simultaneously at 340 nm. […]

The subject of experiment [3] is Na+,K+-ATPase α-subunits (porcine cerebral cortical tissue). Put plainly: Ouabain-stimulated 32Pi phosphorylation of Na+,K+-ATPase alpha subunit. The settings on record: equimolar concentrations; ouabain = 100%; listed as Dho. The experiment is classed as biochemical. The method, then:
The ouabain-stimulated phosphorylation of Na^+, K^+-ATPase by phosphate was performed as described in Huang et al., (1994) with some minor modifications. Since the covalently phosphorylated intermediate of the sodium pump formed from inorganic phosphorous (^32Pi) is alkali-labile (acid-stable phosphenzyme intermediate), acidic pH gel electrophoresis was used to resolve the radioactively labeled protein species. Briefly, 60 μl aliquots containing 100-200 μg of porcine cerebral cortical tissues (PCC) were pre-incubated at room temperature for 25 min. with 20 μl of sample in the reaction buffer (50 mM Tris-HCL and 2 mM MgCl2, pH 7.2). A positive control was pre-incubated with 20 μl of a 1 mM ouabain solution also, a negative control was pre-incubated with 20 μl of buffer alone. 10 μl of ^32Pi (1 mCi in 100 μl) was diluted with 250 μl of phosphoric acid and purified through 0.2 μm filter to remove polyphosphates. At the end of the incubation, 20 μl of the ^32Pi filtrate (30 μM, 8 uCi) was added to the mixture and allowed to incubate at room temperature for an additional 15 minutes. The reaction was terminated by the addition of 1 ml 8% HCLO4 which precipitated the proteins and left unincorporated ^32Pi in solution. […] Autoradiograms were quantitated using a soft laser scanning densitometer. […]

The structures appear in SMILES notation.

Broadly, the IC50 is the concentration at which inhibition is half-maximal.

With `C[C@@H]1O[C@@H](O[C@H]2C[C@@H](O)[C@]3(CO)[C@H]4[C@H](O)C[C@]5(C)[C@@H](C6=CC(=O)OC6)CC[C@]5(O)[C@@H]4CC[C@]3(O)C2)[C@H](O)[C@H](O)[C@H]1O` [ouabain, Ouabain], in experiment [1], the “cross-reactivity with dihydroouabain antibody” value amounted to 0.1%. The “cross-reactivity with ouabain antibody” value with anti-ouabain antibody amounted to 100%.

For the compound `C[C@@H]1O[C@@H](O[C@H]2C[C@@H](O)[C@]3(CO)[C@H]4[C@H](O)C[C@]5(C)[C@@H]([C@@H]6COC(=O)C6)CC[C@]5(O)[C@@H]4CC[C@]3(O)C2)[C@H](O)[C@H](O)[C@H]1O` [dho-B], in experiment [2] (porcine cerebral cortex enzyme, read-out: IC50 for inhibiting the catalytic activity of the Na+,K+-ATPase enzyme), the IC50 came out at 1.7 µM. Besides, the “times less potent than ouabain for inhibition of Na+,K+-ATPase” value in experiment [2] (relative to ouabain) is reported as 3 times.

For `C[C@@H]1O[C@@H](O[C@H]2C[C@@H](O)[C@]3(CO)[C@H]4[C@H](O)C[C@]5(C)[C@@H]([C@@H]6COC(=O)C6)CC[C@]5(O)[C@@H]4CC[C@]3(O)C2)[C@H](O)[C@H](O)[C@H]1O` [dihydroouabain, Dihydroouabain], the “cross-reactivity with dihydroouabain antibody” value in experiment [1] was 100%. In addition, the “phosphorylation activity relative to ouabain” value in experiment [3] was determined as 82%. Moreover, in the experiment with anti-ouabain antibody, the “affinity for anti-ouabain antibody” value is “little affinity” and the “cross-reactivity with ouabain antibody” value is 2-3%.

Source of the values: patent US6835715B1, “Mammalian dihydroouabain-like factor and therapeutic compositions” (University of Louisville Research Foundation, Inc., priority 1999, dated 2004).
